According to US20240335541A1, “NANOMATERIALS COMPRISING DIAMINES” (Beam Therapeutics Inc., priority 2021, published 2024):

Columns and labels:
[1] = tested on: human ALAS1 target site; experiment: In vivo base editing with LNP carrying adenine base editor mRNA and sgRNA, targeted deep sequencing; settings: 3.0 mg/kg dose IV; NBSGW mice engrafted with human CD34+ cells; four to six days post-dose
Procedure: Exemplary LNP preparations were selected to determine each preparation's ability to perform base editing in a NBSGW mouse model as described herein.
Lipid nanoparticle components were dissolved in 100% ethanol at specified lipid component molar ratios. mRNA encoding an adenine base editor and a chemically-modified sgRNA were dissolved at a mass ratio of 1:1 in 10 mM citrate, pH 3.0, resulting in a concentration of NA cargo of approximately 0.2 mg/mL.
LNP preparations were formulated with molar ratios of 50% Ionizable Lipid: 38.5% Cholesterol: 1.5% PEG2000-DMG: 10% DSPC total lipid to NA mass ratio of 19 to 1.
LNP preparations were formed by microfluidic mixing of the lipid and NA solutions using a Precision Nanosystems NanoAssemblr Spark series Instruments, according to the manufacturer's protocol.
A 3:1 ratio of aqueous to organic solvent was maintained during mixing using differential flow rates. […] After this initial dialysis, each individual LNP preparation was characterized via dynamic light scattering (DLS) to measure size and polydispersity. pKa of a subpopulation of LNP preparations was measured via TNS assay. […]
Age-matched mice were also used to administer vehicle (1×PBS) via tail vein injection as a control. […] Base editing was determined by performing targeted deep sequencing analysis at the human ALAS1 target site using extracted genomic DNA. […]

[2] = LNP encapsulation efficiency, unlysed vs lysed LNPs, Qubit kit (Example 1 LNPs); format: physicochemical; settings: LNPs prepared according to Example 1; total lipid to NA mass ratio 11.7
Procedure: Concentration of NA was determined by Qubit microRNA kit (for siRNA) or HS RNA kit (for mRNA) per manufacturer's instructions. Encapsulation efficiency was determined by measuring nucleic acid concentration in unlysed and lysed LNPs. Encapsulation efficiency was determined by measuring unlysed and lysed LNPs.

[3] = LNP hydrodynamic diameter and polydispersity by DLS (Example 1 LNPs); format: physicochemical; settings: LNPs prepared according to Example 1, total lipid to NA mass ratio 11.7
Procedure: LNPs were prepared with a total lipid to NA mass ratio of 11.7. LNPs were formed by microfluidic mixing of the lipid and NA solutions using a Precision Nanosystems NanoAssemblr Spark or Benchtop series Instruments, according to the manufacturers protocol. A ratio of aqueous to organic solvent of approximately 2:1 or 3:1 was maintained during mixing using differential flow rates. After mixing, LNPs were collected, diluted in PBS (approximately 1:1 v/v). Further buffer exchange was conducted using dialysis in PBS at 4° C. for 4 to 24 hours against a 20 kDa filter. After this initial dialysis, each individual LNP preparation was characterized via dynamic light scattering (DLS) to measure the size (e.g., diameter) and polydispersity. In addition, pKa of a subpopulation of LNPs was measured via a 2-(p-toluidino)-6-napthalene sulfonic acid (TNS) assay. LNPs falling within specific diameter and polydispersity ranges are pooled, and further dialyzed against phosphate buffer saline (PBS) at 4° C. for 1 to 4 hours against a 100 kDa dialysis cassette. After the second dialysis, LNPs were sterile filtered using […] filter and stored at 4° C. for further use.
DLS-LNP hydrodynamic diameter and polydispersity index (PDI) were measured using high throughput dynamic light scattering (DLS) (DynaPro plate reader II, Wyatt). LNPs were diluted 1×PBS to an appropriate concentration and analyzed.
Lipid nanoparticle components were dissolved in 100% ethanol at specified lipid component molar ratios. Nucleic acid (NA) cargo was dissolved in 10 mM citrate, 100 mM NaCl, pH 4.0, resulting in a concentration of NA cargo of approximately 0.22 mg/mL. In some embodiments, NA cargos included both a functional NA and a reporter DNA barcode mixed at mass ratios of 1:10 to 10:1 functional NA to barcode. LNPs were formulated with a total lipid to NA mass ratio of 11.7. LNPs were formed by microfluidic mixing of the lipid and NA solutions using a Precision Nanosystems NanoAssemblr Spark or Benchtop series Instruments, according to the manufacturer's protocol. A 2:1 or 3:1 ratio of aqueous to organic solvent was maintained during mixing using differential flow rates. After mixing, LNPs were collected, diluted in PBS (approximately 1:1 v/v), and further buffer exchange was conducted using dialysis in PBS at 4° C. for 8 to 24 hours against a 20 kDa filter. After this initial dialysis, each individual LNP formulation was characterized via DLS to measure the size and polydispersity, and the pKa of a subpopulation of LNPs is measured via TNS assay. After dialysis, LNPs were sterile filtered using 0.22 micron sterile filter and stored at 4° C. for further use.
LNP hydrodynamic diameter and polydispersity index (PDI) were measured using high throughput dynamic light scattering (DLS) (DynaPro plate reader II, Wyatt). LNPs were diluted 1×PBS to an appropriate concentration and analyzed.

[4] = LNP encapsulation efficiency by Ribogreen assay (Example 16 LNPs); format: physicochemical; settings: Example 16 LNPs: 47.5% Ionizable Lipid: 40% cholesterol: 2.5% PEG-2000 DMG: 10% DPSC, N/P 4-8
Procedure: (§1) LNPs were prepared with 47.5% Ionizable Lipid (e.g., a compound provided herein): 40% cholesterol: 2.5% PEG-2000 DMG: 10% DPSC and an N/P ratio range of 4-8. LNPs were formed by microfluidic mixing of the lipid and NA solutions using a Precision Nanosystems NanoAssemblr Spark or Benchtop series Instruments, according to the manufacturer's protocol. A ratio of aqueous to organic solvent of approximately 2:1 or 3:1 was maintained during mixing using differential flow rates. After mixing, LNPs were collected, diluted in phosphate buffer saline (PBS) or Tris-buffered saline (TBS) (approximately 1:1 v/v). Further buffer exchange was conducted using dialysis in PBS or TBS at 4° C. for 4 to 24 hours against a 20 kDa filter. After this initial dialysis, each individual LNP preparation was characterized via dynamic light scattering (DLS) to measure the size (e.g., diameter) and polydispersity. LNPs falling within specific diameter and polydispersity ranges were pooled, and further dialyzed against PBS or TBS at 4° C. for 1 to 4 hours against a 100 kDa dialysis cassette. After the second dialysis, LNPs were sterile filtered using 0.22 μm filter and stored at 4° C. for further use.
RNA concentration and encapsulation efficiency were determined by Ribogreen assay (BioTek Synergy LX plate reader).

[5] = LNP hydrodynamic diameter and PDI by DLS (Example 16 LNPs, Stunner); format: physicochemical; settings: Example 16 LNPs: 47.5% Ionizable Lipid: 40% cholesterol: 2.5% PEG-2000 DMG: 10% DPSC, N/P 4-8
Procedure: as §1
LNP hydrodynamic diameter and polydispersity index (PDI) were measured using high throughput dynamic light scattering (DLS) (Stunner, Unchained Labs). LNPs were diluted 1×TBS or PBS to an appropriate concentration and analyzed.

| SMILES | Mean Encapsulation Efficiency [2] [%] | Mean Diameter [3] [nm] | Mean PDI [3] [%] | Mean Encapsulation Efficiency [4] [%] | Mean Diameter [5] [nm] | Mean PDI [5] | base editing in bulk bone marrow [1] [%] |
| --- | --- | --- | --- | --- | --- | --- | --- |
| CC/C=C\CCCCOC(CCC(=O)OCCCCCCCN(CCO)CCCN(CCCCCCCOC(=O)CCC(OCCCC/C=C\CC)OCCCC/C=C\CC)CCCCCCCOC(=O)CCC(OCCCC/C=C\CC)OCCCC/C=C\CC)OCCCC/C=C\CC [Example 7-2] | 96.8 | 96.1 | 10.9 | – | – | – | 2.2 |
| CC/C=C\CCCCOC(CCC(=O)OCCCCCCN(CCO)CCCN(CCCCCCCCCOC(=O)C(CCCC)CCCCCC)CCCCCCCCCOC(=O)C(CCCC)CCCCCC)OCCCC/C=C\CC (stereo not shown) [Example 7-8] | 85.4 | 165.2 | 19.3 | 61.1 | 91.0 | 0.11 | – |
| CC/C=C\CCCCOC(CCC(=O)OCCCCCCN(CCCCCCOC(=O)CCC(OCCCC/C=C\CC)OCCCC/C=C\CC)CCN(CCO)CCCCCCCC(=O)OCCCCCCCCC)OCCCC/C=C\CC [Example 7-12, ((2-((2-hydroxyethyl)(8-(nonyloxy)-8-oxooctyl)amino)ethyl)azanediyl)bis(hexane-6,1-diyl) bis(4,4-bis(((Z)-oct-5-en-1-yl)oxy)butanoate)] | 94.7 | 89.3 | 14.9 | 76.5 | 74.4 | 0.11 | – |

Second part, led by results:

| Mean Encapsulation Efficiency [2] [%] | Mean Diameter [3] [nm] | Mean PDI [3] [%] | Mean Encapsulation Efficiency [4] [%] | Mean Diameter [5] [nm] | Mean PDI [5] | SMILES | base editing in bulk bone marrow [1] [%] |
| --- | --- | --- | --- | --- | --- | --- | --- |
| 97.5 | 106.9 | 15.4 | 66.1 | 95.1 | 0.10 | CC/C=C\CCCCOC(CCC(=O)OCCCCCCCN(CCCCCCCOC(=O)CCC(OCCCC/C=C\CC)OCCCC/C=C\CC)CCCN(CCO)CCCCCCCC(=O)OCCCCCCCCC)OCCCC/C=C\CC [Example 7-4, ((3-((2-hydroxyethyl)(8-(nonyloxy)-8-oxooctyl)amino)propyl)azanediyl)bis(heptane-7,1-diyl) bis(4,4-bis(((Z)-oct-5-en-1-yl)oxy)butanoate)] | – |
| 95.9 | 93.7 | 14.3 | 75.4 | 86.2 | 0.10 | CC/C=C\CCCCOC(CCC(=O)OCCCCCCCN(CCCCCCCOC(=O)CCC(OCCCC/C=C\CC)OCCCC/C=C\CC)CCN(CCO)CCCCCCCC(=O)OCCCCCCCCC)OCCCC/C=C\CC [Example 7-13, ((2-((2-hydroxyethyl)(8-(nonyloxy)-8-oxooctyl)amino)ethyl)azanediyl)bis(heptane-7,1-diyl) bis(4,4-bis(((Z)-oct-5-en-1-yl)oxy)butanoate)] | – |
| 95.6 | 77.9 | 9.2 | 70.1 | 77.3 | 0.10 | CC/C=C\CCCCOC(CCC(=O)OCCCCCCN(CCO)CCN(CCCCCCCCCOC(=O)C(CCCC)CCCCCC)CCCCCCCCCOC(=O)C(CCCC)CCCCCC)OCCCC/C=C\CC (stereo not shown) [Example 7-15] | – |
| 92.9 | 100.8 | 13.2 | 70.0 | 90.6 | 0.13 | CC/C=C\CCCCOC(CCC(=O)OCCCCCCCN(CCCCCCCOC(=O)CCC(OCCCC/C=C\CC)OCCCC/C=C\CC)CCN(CCCO)CCCCCCCC(=O)OCCCCCCCCC)OCCCC/C=C\CC [Example 7-19, ((2-((3-hydroxypropyl)(8-(nonyloxy)-8-oxooctyl)amino)ethyl)azanediyl)bis(heptane-7,1-diyl) bis(4,4-bis(((Z)-oct-5-en-1-yl)oxy)butanoate)] | – |
